Reference: US6815556B2, “Compounds having fungicidal activity and processes to make and use same” (Dow AgroSciences LLC, priority 2000, dated 2004)
Like-named read-outs stand apart in the source and are kept apart here.

Experiments:
Phytophthora infestans = experiment: whole plant or invertebrate; type: in vivo; conditions: 24 h, read-out: PHYTIN percent control
Plasmopara viticola = experiment: whole plant or invertebrate; type: in vivo; conditions: 24 h, read-out: PLASVI percent control
Septoria tritici = experiment: Leaf Blotch of Wheat, 1-day protectant whole plant test; type: in vivo; conditions: Zymoseptoria tritici, 24 h, read-out: SEPTTR percent control
[1] = 100 ppm spray, wheat plants (variety Monon), one-day protectant test, vs untreated inoculated plants

Compound | pest or weed control at 100 ppm (Phytophthora infestans) [%] | pest or weed control at 100 ppm (Plasmopara viticola) [%] | pest or weed control at 100 ppm (Septoria tritici; [1]) [%] | melting point [°C] | pest or weed control at 100 ppm (Septoria tritici) [%]
CC(C)OC(=O)N[C@H](CS(=O)(=O)C(C)c1ccc(Br)cc1)C(C)C (stereo partly drawn) [Compound 1] | 90 to 100 | 90 to 100 | < 20 | 60 to 70 | –
CC(C)OC(=O)N[C@H](CS(=O)(=O)C(C)c1ccc(Br)nc1)C(C)C (stereo partly drawn) [Compound 8] | 50 to 89 | 50 to 89 | < 20 | – | –
CC(C)OC(=S)N[C@H](CS(=O)(=O)C(C)c1ccc(C#N)cc1)C(C)C (stereo partly drawn) [Compound 35] | 90 to 100 | 90 to 100 | – | – | –
CC(C)OC(=O)N[C@H](CS(=O)(=O)C(Cl)c1ccc(Cl)cc1)C(C)C (stereo partly drawn) [Compound 22, isopropyl 1-({[chloro(4-chlorophenyl)methyl]sulfonyl}methyl)-2-methylpropylcarbamate] | 90 to 100 | 90 to 100 | < 20 | 140 to 143 | –
C#Cc1ccc(C(C)S(=O)(=O)C[C@@H](NC(=O)OC(C)C)C(C)C)cc1 (stereo partly drawn) [Compound 11] | 90 to 100 | 50 to 89 | 50 to 89 | 125 to 135 | –
C=CCC(c1ccc(C#N)cc1)S(=O)(=O)C[C@@H](NC(=O)Oc1ccc(C)cc1)C(C)C (stereo partly drawn) [Compound 26] | 90 to 100 | 90 to 100 | – | – | –
CC(C)[C@@H](CS(=O)(=O)C(C)c1ccc(C#N)cc1)NC(=O)Oc1ccc(Br)cc1 (stereo partly drawn) [Compound 30] | 90 to 100 | 90 to 100 | – | – | –
CC(C)[C@@H](CS(=O)(=O)C(C)c1ccc(C#N)cc1)NC(=O)Oc1ccc(F)cc1 (stereo partly drawn) [Compound 18] | 90 to 100 | 90 to 100 | – | – | 50 to 89
CC(C)OC(=O)N[C@H](CS(=O)(=O)C(C)c1ccc2ccccc2c1)C(C)C (stereo partly drawn) [Compound 16] | 90 to 100 | 50 to 89 | – | – | –
CC(c1ccc(C#N)cc1)S(=O)(=O)C[C@H](CC1CCCCC1)NC(=O)OC(C)(C)C (stereo partly drawn) [Compound 41] | 50 to 89 | 90 to 100 | – | 58 to 65 | –
Cc1ccc(OC(=O)N[C@H](CS(=O)(=O)C(C)c2ccc(C#N)cc2)C(C)C)cc1 (stereo partly drawn) [Compound 29] | 90 to 100 | 90 to 100 | – | 65 to 74 | 50 to 89
CC(C)OC(=O)N[C@H](CS(=O)(=O)C(C)c1cccc(F)c1)C(C)C (stereo partly drawn) [Compound 3] | 90 to 100 | 50 to 89 | – | – | –
CC(C)OC(=O)N[C@H](CS(=O)(=O)C(C)c1ccc(Cl)c(Cl)c1)C(C)C (stereo partly drawn) [Compound 5] | 90 to 100 | 50 to 89 | < 20 | 75 to 85 | –
CC(C)[C@@H](CS(=O)(=O)C(C)c1ccc(Br)cc1)NC(=O)Oc1ccc2ccccc2c1 (stereo partly drawn) [Compound 31] | 90 to 100 | 90 to 100 | – | 129 to 135 | –
CC(C)OC(=O)N[C@H](CS(=O)(=O)C(C)c1nc2ccc(Br)cc2s1)C(C)C (stereo partly drawn) [Compound 10] | 90 to 100 | 90 to 100 | – | – | –
CCOc1ccc(OC(=O)N[C@H](CS(=O)(=O)C(C)c2ccc(Br)cc2)C(C)C)cn1 (stereo partly drawn) [Compound 32] | 90 to 100 | 90 to 100 | – | – | –
CCC(c1ccc(Cl)cc1)S(=O)(=O)C[C@@H](NC(=O)OC(C)C)C(C)C (stereo partly drawn) [Compound 23] | 50 to 89 | 50 to 89 | 50 to 89 | – | –
CC(C)OC(=O)N[C@H](CS(=O)(=O)C(C)c1ccc([N+](=O)[O-])cc1)C(C)C (stereo partly drawn) [Compound 13] | 90 to 100 | 90 to 100 | < 20 | – | –
CC(C)[C@@H](CS(=O)(=O)C(C)c1ccc(Br)cc1)NC(=O)OC(C)(C)C (stereo partly drawn) [Compound 20] | 90 to 100 | 50 to 89 | 20 to 49 | – | –
CC(C)OC(=O)N[C@H](CS(=O)(=O)C(C)c1ccc(-c2ccccc2)cc1)C(C)C (stereo partly drawn) [Compound 6] | 90 to 100 | 90 to 100 | – | – | –
CC(C)[C@@H](CS(=O)(=O)C(C)c1ccc(C#N)cc1)NC(=O)OCC(Cl)(Cl)Cl (stereo partly drawn) [Compound 27] | 90 to 100 | 90 to 100 | 50 to 89 | – | –

Compound | pest or weed control at 100 ppm (Phytophthora infestans) [%] | pest or weed control at 100 ppm (Plasmopara viticola) [%] | pest or weed control at 100 ppm (Septoria tritici; [1]) [%] | melting point [°C] | pest or weed control at 100 ppm (Septoria tritici) [%]
CC(C)OC(=O)N[C@H](CS(=O)(=O)C(C)c1ccc(C=O)cc1)C(C)C (stereo partly drawn) [Compound 15] | 90 to 100 | 90 to 100 | – | 50 to 60 | –
COC(=O)c1ccc(C(C)S(=O)(=O)C[C@@H](NC(=O)OC(C)C)C(C)C)cc1 (stereo partly drawn) [Compound 14] | 90 to 100 | 90 to 100 | – | 140 to 145 | –
C=C(C)OC(=O)N[C@H](CS(=O)(=O)C(C)c1ccc(C#N)cc1)C(C)C (stereo partly drawn) [Compound 28] | 90 to 100 | 90 to 100 | – | – | –
CCSC(=O)N[C@H](CS(=O)(=O)C(C)c1ccc(C#N)cc1)C(C)C (stereo partly drawn) [Compound 36] | 50 to 89 | 50 to 89 | – | – | –
CC(C)OC(=O)N[C@H](CS(=O)(=O)C(C)c1ccc(OC(F)(F)F)cc1)C(C)C (stereo partly drawn) [Compound 4] | 90 to 100 | 90 to 100 | < 20 | 50 to 60 | –
CC(C)OC(=O)N[C@H](CS(=O)(=O)C(C)c1ccc(C#N)s1)C(C)C (stereo partly drawn) [Compound 9] | 90 to 100 | 90 to 100 | – | – | –
COc1cccc(OC(=O)N[C@H](CS(=O)(=O)C(C)c2ccc(C#N)cc2)C(C)C)c1 (stereo partly drawn) [Compound 43] | 50 to 89 | 90 to 100 | – | 50 to 53 | –
Cc1cccc(OC(=O)N[C@H](CS(=O)(=O)C(C)c2ccc(C#N)cc2)C(C)C)c1 (stereo partly drawn) [Compound 19] | 90 to 100 | 90 to 100 | – | – | –
CON=Cc1ccc(C(C)S(=O)(=O)C[C@@H](NC(=O)OC(C)C)C(C)C)cc1 (stereo partly drawn) [Compound 12] | 90 to 100 | 90 to 100 | – | – | –
Cc1ccc(OC(=O)N[C@H](CS(=O)(=O)C(C)c2ccc(C#N)cc2)C(C)C)cc1C (stereo partly drawn) [Compound 33] | 90 to 100 | 90 to 100 | – | – | –
CC(C)[C@@H](CS(=O)(=O)C(C)c1ccc(C#N)cc1)NC(=O)Nc1ccc(C(F)(F)F)cc1 (stereo partly drawn) [Compound 37] | 90 to 100 | 90 to 100 | – | – | –
COC(C)[C@@H](CS(=O)(=O)C(C)c1ccc(C#N)cc1)NC(=O)Oc1ccc(C)cc1 (stereo partly drawn) [Compound 40] | 90 to 100 | 90 to 100 | – | – | –
CC(C)OC(=O)N[C@H](CS(=O)(=O)C(C)c1cc2ccc(F)cc2o1)C(C)C (stereo partly drawn) [Compound 25] | 90 to 100 | 90 to 100 | – | – | –
CC(C)OC(=O)N[C@@H](C(C)C)C(C)S(=O)(=O)C(C)c1ccc(Br)cc1 (stereo partly drawn) [Compound 44] | 90 to 100 | 50 to 89 | – | – | –
CC(C)OC(=O)N[C@H](CS(=O)(=O)C(C)c1ccc(Br)c([N+](=O)[O-])c1)C(C)C (stereo partly drawn) [Compound 24] | 90 to 100 | 90 to 100 | – | – | –
CC[C@@H](CS(=O)(=O)C(C)c1ccc(C#N)cc1)NC(=O)Oc1ccc(F)cc1 (stereo partly drawn) [Compound 42] | 90 to 100 | 90 to 100 | – | 50 to 62 | –
CC(C)[C@@H](CS(=O)(=O)C(C)c1ccc(C#N)cc1)NC(=O)Oc1ccccc1Br (stereo partly drawn) [Compound 34] | 90 to 100 | 90 to 100 | – | – | –
CC[C@@H](CS(=O)(=O)C(C)c1ccc(C#N)cc1)NC(=O)Oc1ccc(C)cc1 (stereo partly drawn) [Compound 38] | 90 to 100 | 90 to 100 | – | 50 to 60 | –
C#CCCOC(=O)N[C@H](CS(=O)(=O)C(C)c1ccc(Br)cc1)C(C)C (stereo partly drawn) [Compound 21] | 90 to 100 | 50 to 89 | 50 to 89 | – | –
CCC(C)[C@@H](CS(=O)(=O)C(C)c1ccc(Br)cc1)NC(=O)OC(C)C (stereo partly drawn) [Compound 39] | 90 to 100 | 90 to 100 | – | – | –
